According to PubChem BioAssay AID256 (DTP/NCI, 2004):
“And” between values parts separate entries of the source, which are not always exact repeats. Identical values can stand only once. Inconclusive results and toxic doses are left out. How the source made its calls: active means survival T/C of 150% or more; inactive means T/C below 125% in these data.

Test system: CD2F1 mice, L1210 leukemia ip, survival T/C
Test: NCI In Vivo Anticancer Drug Screen. Data for tumor model L1210 Leukemia (intraperitoneal) in CD2F1 (CDF1) mice
Conditions: higher = longer survival
Outline: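 Vehicle-treated tumor-bearing mice served as controls (C) for compound-treated mice (T). Reported figure is T divided by C.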

[1] = endpoint: mean survival time, dose: 100.0 mg/kg/injection, schedule: Q04DX003 (ip), vehicle: saline with Tween-80
[2] = endpoint: mean survival time, dose: 200.0 mg/kg/injection, schedule: Q04DX003 (ip), vehicle: saline with Tween-80
[3] = endpoint: mean survival time, dose: 400.0 mg/kg/injection, schedule: Q04DX003 (ip), vehicle: saline with Tween-80
[4] = endpoint: mean survival time, dose: 100.0 mg/kg/injection, schedule: Q04DX003 (ip), vehicle: saline
[5] = endpoint: mean survival time, dose: 200.0 mg/kg/injection, schedule: Q04DX003 (ip), vehicle: saline
[6] = endpoint: mean survival time, dose: 100.0 mg/kg/injection, schedule: Q01DX001 (ip), vehicle: saline with Tween-80
[7] = endpoint: mean survival time, dose: 200.0 mg/kg/injection, schedule: Q01DX001 (ip), vehicle: saline with Tween-80
[8] = endpoint: mean survival time, dose: 400.0 mg/kg/injection, schedule: Q01DX001 (ip), vehicle: saline with Tween-80
[9] = endpoint: mean survival time, dose: 100.0 mg/kg/injection, schedule: Q01DX009 (ip), vehicle: saline sonified
[10] = endpoint: mean survival time, dose: 200.0 mg/kg/injection, schedule: Q01DX009 (ip), vehicle: saline sonified
[11] = endpoint: mean survival time, dose: 100.0 mg/kg/injection, schedule: Q01DX009 (ip), vehicle: saline with Tween-80
[12] = endpoint: mean survival time, dose: 200.0 mg/kg/injection, schedule: Q01DX009 (ip), vehicle: saline with Tween-80
[13] = endpoint: mean survival time, dose: 400.0 mg/kg/injection, schedule: Q01DX009 (ip), vehicle: saline with Tween-80
[14] = endpoint: mean survival time, dose: 100.0 mg/kg/injection, schedule: Q04DX002 (ip), vehicle: saline with Tween-80
[15] = endpoint: mean survival time, dose: 200.0 mg/kg/injection, schedule: Q04DX002 (ip), vehicle: saline with Tween-80
[16] = endpoint: mean survival time, dose: 400.0 mg/kg/injection, schedule: Q04DX002 (ip), vehicle: saline with Tween-80

Measured: T/C

C[S+](C)CCC(N)C(=O)O (stereo not drawn)
inactive: endpoint: median survival time, dose: 3.13 mg/kg/injection, schedule: Q04DX002 (ip), vehicle: saline 105 % of control | endpoint: median survival time, dose: 6.25 mg/kg/injection, schedule: Q04DX002 (ip), vehicle: saline 105 % of control | endpoint: median survival time, dose: 12.5 mg/kg/injection, schedule: Q04DX002 (ip), vehicle: saline 108 % of control | endpoint: median survival time, dose: 25.0 mg/kg/injection, schedule: Q04DX002 (ip), vehicle: saline 100 % of control | endpoint: median survival time, dose: 50.0 mg/kg/injection, schedule: Q04DX002 (ip), vehicle: saline 117 % of control

CSc1ccccc1C(=O)O
inactive: [1] 102 % of control and 95 % of control | [2] 96 % of control and 101 % of control | [3] 102 % of control and 101 % of control

CC1(O)CC2C=CC1CC2 (stereo not drawn)
inactive: [1] 101 % of control | [2] 104 % of control | [3] 95 % of control

CCCCCCCC(C)/C=N/NC(=O)c1ccc[n+](C)c1 (stereo not drawn)
inactive: [4] 103 % of control | [5] 101 % of control

CSC(=S)NN=C(C)C
inactive: endpoint: mean survival time, dose: 6.25 mg/kg/injection, schedule: Q01DX009 (ip), vehicle: saline sonified 89 % of control | endpoint: mean survival time, dose: 6.25 mg/kg/injection, schedule: Q04DX003 (ip), vehicle: saline with Tween-80 96 % of control | endpoint: mean survival time, dose: 12.5 mg/kg/injection, schedule: Q01DX009 (ip), vehicle: saline sonified 87 % of control | endpoint: mean survival time, dose: 12.5 mg/kg/injection, schedule: Q04DX003 (ip), vehicle: saline with Tween-80 96 % of control

CCC1(C)C(=O)CCC2C1CCC1(C)C(C(C)CCCC(C)C)CCC21 (stereo not drawn)
inactive: endpoint: mean survival time, dose: 100.0 mg/kg/injection, schedule: Q01DX001 (sc), vehicle: steriod suspending solution 101 % of control | endpoint: mean survival time, dose: 200.0 mg/kg/injection, schedule: Q01DX001 (sc), vehicle: steriod suspending solution 98 % of control | endpoint: mean survival time, dose: 400.0 mg/kg/injection, schedule: Q01DX001 (sc), vehicle: steriod suspending solution 118 % of control

CCOC(=O)/C(C#N)=C/NC(N)=O
inactive: endpoint: mean survival time, dose: 50.0 mg/kg/injection, schedule: Q01DX001 (ip), vehicle: Klucel (hydroxypropylcellulose) (HPC) 100 % of control | endpoint: mean survival time, dose: 100.0 mg/kg/injection, schedule: Q01DX001 (ip), vehicle: Klucel (hydroxypropylcellulose) (HPC) 91 % of control and 92 % of control | endpoint: mean survival time, dose: 200.0 mg/kg/injection, schedule: Q01DX001 (ip), vehicle: Klucel (hydroxypropylcellulose) (HPC) 103 % of control | endpoint: mean survival time, dose: 400.0 mg/kg/injection, schedule: Q01DX001 (ip), vehicle: Klucel (hydroxypropylcellulose) (HPC) 88 % of control

CCOC(=O)c1cn[nH]c1/N=C/N(C)C
inactive: [6] 98 % of control | [7] 104 % of control | [8] 106 % of control

Cc1ccnc(NC2=CC(=O)C(=O)c3ccccc32)c1
inactive: [9] 108 % of control | [10] 103 % of control

C=C1CCCCC1C(C(=O)O)(c1ccccc1)c1ccccc1 (stereo not drawn)
inactive: [1] 102 % of control | [2] 102 % of control | [3] 100 % of control

C=C(Br)CC1CCCCC1=O (stereo not drawn)
inactive: [6] 94 % of control | [9] 98 % of control | [7] 93 % of control | [10] 94 % of control | [8] 95 % of control | endpoint: mean survival time, dose: 400.0 mg/kg/injection, schedule: Q01DX009 (ip), vehicle: saline sonified 100 % of control

CN(C)c1ccc(/C=N/NC(=O)CNC(=O)c2ccccc2)cc1
inactive: [11] 95 % of control | [12] 89 % of control | [13] 89 % of control

Cc1ccc(C2=C(Br)C(=O)C(c3ccc(C)cc3C)=C(Br)C2=O)c(C)c1
inactive: [6] 92 % of control | [7] 92 % of control | [8] 101 % of control

c1cc[n+]2c(c1)-c1cccc[n+]1CCCC2
inactive: endpoint: mean survival time, dose: 75.0 mg/kg/injection, schedule: Q01DX009 (ip), vehicle: saline 108 % of control | endpoint: mean survival time, dose: 75.0 mg/kg/injection, schedule: Q04DX003 (ip), vehicle: saline 98 % of control | endpoint: mean survival time, dose: 150.0 mg/kg/injection, schedule: Q01DX009 (ip), vehicle: saline 100 % of control | endpoint: mean survival time, dose: 150.0 mg/kg/injection, schedule: Q04DX003 (ip), vehicle: saline 93 % of control | endpoint: mean survival time, dose: 300.0 mg/kg/injection, schedule: Q04DX003 (ip), vehicle: saline 96 % of control

Fc1ccc(Nc2c3ccccc3nc3ccccc23)cc1
inactive: [11] 96 % of control

CCOC(=O)/C=C(C)/C=C/C1C(C)=CCCC1(C)C (stereo not drawn)
inactive: [14] 103 % of control | [15] 92 % of control | [16] 100 % of control

O=C(Nc1ccc(Cl)c(Cl)c1)c1cc(Cl)ccc1O
inactive: [11] 102 % of control | [12] 100 % of control | [13] 105 % of control

On1ccc(=S)c2ccccc21
inactive: [1] 102 % of control | [2] 96 % of control | [3] 102 % of control

Oc1cc(O)c(Cl)cc1Cl
inactive: endpoint: mean survival time, dose: 25.0 mg/kg/injection, schedule: Q01DX001 (ip), vehicle: saline 103 % of control | endpoint: mean survival time, dose: 50.0 mg/kg/injection, schedule: Q01DX001 (ip), vehicle: saline 95 % of control | endpoint: mean survival time, dose: 100.0 mg/kg/injection, schedule: Q01DX001 (ip), vehicle: saline 95 % of control and 104 % of control

O=c1[nH]cnc2c1nc(N1CCCC1)n2C1OC(CO)C(O)C1O (stereo not drawn)
inactive: endpoint: mean survival time, dose: 12.5 mg/kg/injection, schedule: Q01DX005 (ip), vehicle: distilled water + Tween-80 102 % of control | endpoint: mean survival time, dose: 25.0 mg/kg/injection, schedule: Q01DX005 (ip), vehicle: distilled water + Tween-80 98 % of control | endpoint: mean survival time, dose: 50.0 mg/kg/injection, schedule: Q01DX005 (ip), vehicle: distilled water + Tween-80 100 % of control | endpoint: mean survival time, dose: 100.0 mg/kg/injection, schedule: Q01DX005 (ip), vehicle: distilled water + Tween-80 102 % of control

Cc1ccc(C2(c3ccccc3)c3ccccc3C(=O)N2c2ccccc2)cc1 (stereo not drawn)
inactive: [1] 97 % of control | [2] 101 % of control | [3] 103 % of control

O=C(O)CC(CC(=O)O)C(=O)O
inactive: [4] 101 % of control | [5] 103 % of control | endpoint: mean survival time, dose: 400.0 mg/kg/injection, schedule: Q04DX003 (ip), vehicle: saline 101 % of control

CCCCCCCC1SC(=S)NC1=O (stereo not drawn)
inactive: endpoint: mean survival time, dose: 12.5 mg/kg/injection, schedule: Q01DX009 (ip), vehicle: other 95 % of control | endpoint: mean survival time, dose: 25.0 mg/kg/injection, schedule: Q01DX009 (ip), vehicle: other 89 % of control | endpoint: mean survival time, dose: 50.0 mg/kg/injection, schedule: Q01DX009 (ip), vehicle: other 100 % of control | endpoint: mean survival time, dose: 100.0 mg/kg/injection, schedule: Q01DX009 (ip), vehicle: other 91 % of control

CCC(C)(O)c1ccccc1 (stereo not drawn)
inactive: endpoint: mean survival time, dose: 50.0 mg/kg/injection, schedule: Q01DX009 (ip), vehicle: saline with Tween-80 103 % of control | [11] 100 % of control | [12] 95 % of control

COC(=O)C(NC(=O)Cc1ccccc1)C(C)(C)S (stereo not drawn)
inactive: [14] 102 % of control | [15] 102 % of control | [16] 102 % of control

O=C1C=CC(=O)N1CO (tested in a mixture with another compound)
inactive: [11] 98 % of control | [12] 98 % of control | [13] 93 % of control

O=C1CCCCC1CNCc1ccccc1 (stereo not drawn)
inactive: endpoint: mean survival time, dose: 75.0 mg/kg/injection, schedule: Q01DX001 (ip), vehicle: saline 102 % of control | endpoint: mean survival time, dose: 150.0 mg/kg/injection, schedule: Q01DX001 (ip), vehicle: saline 93 % of control

Oc1ccc(O)c(/C=N/NC(=S)NC2CC3CC2C2C=CCC32)c1 (stereo not drawn)
inactive: endpoint: mean survival time, dose: 12.5 mg/kg/injection, schedule: Q01DX009 (ip), vehicle: olive oil, sesame oil, peanut oil 93 % of control | endpoint: mean survival time, dose: 25.0 mg/kg/injection, schedule: Q01DX009 (ip), vehicle: olive oil, sesame oil, peanut oil 96 % of control | endpoint: mean survival time, dose: 50.0 mg/kg/injection, schedule: Q01DX009 (ip), vehicle: olive oil, sesame oil, peanut oil 100 % of control | endpoint: mean survival time, dose: 100.0 mg/kg/injection, schedule: Q01DX009 (ip), vehicle: olive oil, sesame oil, peanut oil 102 % of control | endpoint: mean survival time, dose: 200.0 mg/kg/injection, schedule: Q01DX009 (ip), vehicle: olive oil, sesame oil, peanut oil 87 % of control | endpoint: mean survival time, dose: 400.0 mg/kg/injection, schedule: Q01DX009 (ip), vehicle: olive oil, sesame oil, peanut oil 94 % of control

COP(=O)(OC)OCC1OC(n2ccc(N)nc2=O)C(O)C1O (stereo not drawn)
inactive: endpoint: median survival time, dose: 12.5 mg/kg/injection, schedule: Q01DX005 (ip), vehicle: saline 111 % of control | endpoint: median survival time, dose: 25.0 mg/kg/injection, schedule: Q01DX005 (ip), vehicle: saline 104 % of control | endpoint: median survival time, dose: 50.0 mg/kg/injection, schedule: Q01DX005 (ip), vehicle: saline 110 % of control | endpoint: median survival time, dose: 100.0 mg/kg/injection, schedule: Q01DX005 (ip), vehicle: saline 115 % of control and 108 % of control | endpoint: median survival time, dose: 200.0 mg/kg/injection, schedule: Q01DX005 (ip), vehicle: saline 113 % of control
